Results on five molecules are retold here after patent publication US6593137B1, “Antibodies specific for fullerenes” (The Trustees of Columbia University in the City of New York, priority 1999, dated 2003).

Data set [1] deals with human keratinocytes and fibroiblasts. Particulars: cited from earlier work.
A further data set deals with Sprague-Dawley rats. Kind of data set: γ-camera imaging study. The class given is in vivo. Particulars: IP. As for the experimental part: The biodistribution in mice of hydroxylated lanthanide-C82 encapsulates is under current investigation. The results presented here are regarded as preliminary as the sample is still small. Studies continue under a NIH Phase I grant. The neutron irradiated samples, along with a ^166Ho^3+ control sample, were used to perform a γ-camera imaging study on four 300 g Sprague-Dawley rats. Two rats were injected intraperitoneally (IP) with 54 and 18 μCi of ^166Ho activity from samples containing irradiated Ho-metallofullerois. Two control studies were performed by IP administration of approximately 660 μCi of ^166Ho^3+ in a 1% sodium citrate buffer. The anesthetized rats were scanned side-by-side on a single stage with a γ-camera starting 1 hour after injection and periodically thereafter over the ensuing 48 hours.

The nature of another data set: Air sensitivity. The class given is physicochemical. An excerpt:
While previous work reported in the literature performed HPLC under aerobic conditions, (see for example Funasaka et al. 1995) these studies determined that anaerobic controls better preserved the fraction of Gd@C82 in solution. […] The fraction containing the Gd@C82 was identified using MS. The solubility of fullerenes in o-xylene is about three times that of toluene and this greatly increases the ratio of fullerenes in solution to those retained on the stationary phase. Therefore, the capacity or amount of fullerenes purified per injection was very large. Each injection contained 2 ml of saturated fullerene o-xylene solution (about 30 mg of fullerenes).

For data set [2], the system named is anti-fullerene antibodies. Briefly: ELISA competitive inhibition of antibody binding to 1-RSA. The arrangement: species or system BALB/c mice. As for the experimental part:
After a total of three immunizations at 3-week intervals, confirmation of an immune response was determined by direct ELISA in which polystyrene plates (Corning) were coated with the 1-RSA conjugate (0.5 mg/ml in 0.1 M NaHCO3, pH 9), and binding of preimmune and immune sera were determined by standard procedures. Development was with horseradish peroxidase-labeled goat anti-mouse IgG (Sigma), which tested negative for crossreaction with an IgM preparation. The substrate used was o-phenylenediamine.
(§1) Specificity of the resp)onse was determined by two procedures: double diffusion in agar (22) and competitive inhibition, as determined by ELISA using RSA and BSA conjugates of the fullerenes, as well as the oligo lysine derivatives. The fullerenes themselves were not soluble enough in aqueous solutions.
The adenosine conjugate had been synthesized using the same strategy used for the fullerenes, i.e., linkage to the epsilon amino groups of the lysines via an N-hydroxysuccinimide ester derivative.

For data set [3], the system named is anti-fullerene antibodies. Briefly: Double diffusion in agar. The class given is binding, BALB/c mice. As for the experimental part:
Immunization Procedure and Detection of Antibodies. BALB/c mice were immunized i.p. with 1-TG in complete Freund's adjuvant for the primary immunization and incomplete adjuvant for subsequent immunizations.
as §1
Specificity of the response was determined by two procedures: Double diffusion in agar and competitive inhibition, as determined by ELISA using RSA and BSA conjugates of the fullerenes, as well as the oligo lysine derivatives. The fullerenes themselves were not soluble enough in aqueous solutions.

On to `c12c3c4c5c1c1c6c7c2c2c8c3c3c9c4c4c%10c5c5c1c1c6c6c%11c7c2c2c7c8c3c3c8c9c4c4c9c%10c5c5c1c1c6c6c%11c2c2c7c3c3c8c4c4c9c5c1c1c6c2c3c41` [Compound C60, fullerene-C60], for which, in data set [1], the “effect on rate of thymidine uptake” value is given as “no effect”.

For `[166Ho+3]` [^166Ho^3+], the “excretion of 166Ho activity” value with Sprague-Dawley rats (after 24 hours) is “essentially all ^166Ho activity had been excreted”. Also, the urinary clearance entry in the data set on Sprague-Dawley rats (commencing 1 hour post-injection) was “rapid ^166Ho^3+ urinary clearance”.

Gd@C82(OH)x: the air sensitivity entry in “Air sensitivity” is “does not appear to be air sensitive”.

Turning to Rabbit Serum Albumin [RSA], the “inhibition of antibody binding to 1-RSA” value in data set [2] is given as “No inhibition”.

With bovine thyroglobulin [TG], the “inhibition of antibody binding to 1-RSA” value in data set [2] is listed as “No inhibition”. The “precipitation with immune serum in double diffusion in agar” value is listed as “a line of precipitation was seen” in data set [3] (TG solution diluted 5-fold) and “no visible precipitate” in data set [3] (serum of mice immunized with 1-TG).
